Reference: patent EP0017525A1, “Derivatives of tetrahydroalstonine, their preparation and their application as medicaments” (PIERRE FABRE S.A., priority 1979, dated 1980)

Legend:
[1] = tested on: pression artérielle et membrane nictitante; assay: Adrenolytic activity in the anaesthetised cat; format: in vivo; details: chat
Description: (§1) Les propriétés adrénolytiques ont été recherchées chez le chat et le chien anesthésiés vis-à-vis de la pression artérielle et de la membrane nictitante (chat).

[2] = Acute toxicity, intravenous route; format: in vivo; details: mouse, in vivo, iv; souris, voie intraveineuse; read-out: DL 50 (the source's name)
Description: (§2) Par voie injectable les composés de formule I ont été administrés jusqu'à 100 mg/kg, sans provoquer de mortalité chez le rat. A titre d'exemple, on précisera que la DL 50 par voie intraveineuse chez la souris est de 330 mg/kg pour le tétrahydroalstonate de sodium. La toxicité du tétrahydroalstonate de créatinol chez la souris,par voie intraveineuse calculée selon la méthode de Kärber est de 450 mg/kg.

[3] = tested on: agrégation à l'ADP, au collagène et à l'ADP + adrénaline; assay: In vitro aggregation induced by ADP, collagen and ADP + adrenaline; format: cell-based
Description: Les tétrahydroalstonates de sodium, de créatinol et d'imidazole sont actifs in vitro vis-à-vis de l'agrégation à l'ADP, au collagène et à l'ADP + adrénaline; les concentrations actives.variant de 1.10^-3M à 1.10^-5M selon les tests et les composés particuliers répondant à la formule générale I.

[4] = tested on: excrétion urinaire provoquée par l'adrénaline; details: rat; for augmentation de l'excrétion urinaire provoquée par l'adrénaline: 100 mg par voie orale; for absorption par voie orale: in vivo, po
pression artérielle = assay: Adrenolytic activity and arterial pressure in the anaesthetised dog; format: in vivo; details: chien, 0,1 à 10 mg/kg par voie intraveineuse
Description: as §1
Cette activité ne s'accompagne pas de diminution de la force de contraction cardiaque. L'inversion de l'hypertension à l'adrénaline commence dès la dose de 0,05 mg/kg.

souris = assay: Acute toxicity, intravenous route; format: in vivo; details: voie intraveineuse, méthode de Kärber
Description: as §2

COC(=O)C1=COC(C)C2CN3CCc4c([nH]c5ccccc45)C3CC12 (stereo not drawn) [raubasine, reference compound]
dose pour laquelle l'adrénolyse est parfaitement nette [1]: 2 mg/kg

CC1OC=C(C(=O)O)C2CC3c4[nH]c5ccccc5c4CCN3CC12 (stereo not drawn) [tétrahydroalstonate de sodium, Tétrahydroalstonate de sodium]
LD50 [2]: 330 mg/kg | agrégation à l'ADP [3]: actifs | agrégation à l'ADP + adrénaline [3]: actifs | agrégation au collagène [3]: actifs | augmentation de l'excrétion urinaire provoquée par l'adrénaline [4]: réduisent l'augmentation de l'excrétion urinaire provoquée par l'adrénaline | absorption par voie orale [4]: bonne absorption par voie orale | solubility (Solubility; 95% ethanol, organic solvent or mixture): 70 mg/mL | solubility (Solubility; chloroform, organic solvent or mixture): 35 mg/mL | solubility (Solubility; water): 90 mg/mL | activité adrénolytique comparée à la raubasine et à la tétrahydroalstonine ([1]; voie injectable): très nettement supérieure à celle de la raubasine et de la tétrahydroalstonine | pression artérielle (pression artérielle): diminution progressive de la pression artérielle proportionnelle à la dose

COC(=O)C1=COC(C)C2CN3CCc4c([nH]c5ccccc45)C3CC12 (stereo not drawn) [tétrahydroalstonine, reference compound]
dose pour laquelle l'adrénolyse est parfaitement nette [1]: 0,5 mg/kg

Tétrahydroalstonate de créatinol
toxicité (souris): 450 mg/kg | agrégation à l'ADP [3]: actifs | agrégation à l'ADP + adrénaline [3]: actifs | agrégation au collagène [3]: actifs | Solubilités : éthanol à 95 (95% ethanol): 5% | Solubilités : eau (water): 5% | augmentation de l'excrétion urinaire provoquée par l'adrénaline [4]: réduisent l'augmentation de l'excrétion urinaire provoquée par l'adrénaline | absorption par voie orale [4]: bonne absorption par voie orale | activité adrénolytique comparée à la raubasine et à la tétrahydroalstonine ([1]; voie injectable): très nettement supérieure à celle de la raubasine et de la tétrahydroalstonine | dose à laquelle les composés agissent (activité adrénolytique) ([1]; voie injectable): 0,1 mg/kg | pression artérielle (pression artérielle): diminution progressive de la pression artérielle proportionnelle à la dose

tétrahydroalstonate d'imidazole
agrégation à l'ADP [3]: actifs | agrégation à l'ADP + adrénaline [3]: actifs | agrégation au collagène [3]: actifs
